Assays:
PKC delta = biological target: T1, PKC delta (Homo sapiens, UniProt Q05655); assay: PKC delta Assay (384-well time resolved fluorescence, IMAP TR-FRET); type: biochemical; conditions: selectivity for PKC-theta over PKC-delta
T1 construct: purchased Invitrogen
Protocol: PKC delta Assay. A 384-well time resolved fluorescence assay was used to monitor PKC delta activity. The PKC delta assay was run in the following assay buffer: 50 mM HEPES pH 7.6, 10 mM MgCl2, 1 mM DTT, 0.01% Triton X-100, 0.01% BSA and 0.1 mM EDTA. To initiate the reaction, 200 nM of Fam-labeled S6-derived peptide (Molecular Devices) and 10 μM of ATP were mixed with 1.5 nM of PKC delta (Invitrogen), for a total assay volume of 25 μL in each well. The assay was incubated at room temperature for 2 hours and terminated using a 60 μL/well mixture of Detection Binding Solution: 70% IMAP Progressive Binding Buffer A, 30% IMAP Progressive Binding Buffer B, 1:600 Progressive Binding Reagent, and 1:400 TR-FRET Tb Donor (Molecular Devices). The assay plates were then incubated overnight at room temperature and read on the Perkin-Elmer Envision Reader.

His-PKC-theta = biological target: T2, His-PKC-theta (Homo sapiens, UniProt Q04759); assay: PKC-theta Assay (384-well time resolved fluorescence, IMAP TR-FRET); type: biochemical; conditions: read-out: Act. Level (IC50 in the PKC-theta Assay)
T2 construct: His; purchased Invitrogen
T2 sequence (Q04759 whole entry): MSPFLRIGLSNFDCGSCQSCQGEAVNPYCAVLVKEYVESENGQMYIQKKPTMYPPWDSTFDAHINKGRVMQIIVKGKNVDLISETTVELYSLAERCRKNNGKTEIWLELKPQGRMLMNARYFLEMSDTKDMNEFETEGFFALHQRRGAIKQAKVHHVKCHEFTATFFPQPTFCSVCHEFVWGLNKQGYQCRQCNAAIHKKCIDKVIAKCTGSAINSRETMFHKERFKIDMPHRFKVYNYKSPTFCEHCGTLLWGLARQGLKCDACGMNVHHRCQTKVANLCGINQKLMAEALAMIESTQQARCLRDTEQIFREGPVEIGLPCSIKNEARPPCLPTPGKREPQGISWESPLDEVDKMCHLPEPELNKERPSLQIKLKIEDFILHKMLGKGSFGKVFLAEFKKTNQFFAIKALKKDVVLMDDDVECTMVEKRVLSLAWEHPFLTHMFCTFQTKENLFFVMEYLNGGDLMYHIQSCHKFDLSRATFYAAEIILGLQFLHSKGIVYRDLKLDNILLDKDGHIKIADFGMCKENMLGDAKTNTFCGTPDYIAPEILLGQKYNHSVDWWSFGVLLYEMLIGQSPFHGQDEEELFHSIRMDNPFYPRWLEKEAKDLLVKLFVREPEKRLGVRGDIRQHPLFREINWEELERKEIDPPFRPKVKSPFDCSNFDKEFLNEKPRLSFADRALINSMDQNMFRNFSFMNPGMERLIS
Method in brief: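 Fam-labeled S6-derived peptide (200 nM) and 10 μM ATP were reacted with 142 pM enzyme for 2 h at room temperature in HEPES pH 7.6 buffer with MgCl2, DTT, Triton X-100, BSA and EDTA. The reaction was stopped with IMAP progressive binding reagent plus Tb donor, incubated overnight, then TR-FRET read.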

T1 sequence (Q05655 whole entry): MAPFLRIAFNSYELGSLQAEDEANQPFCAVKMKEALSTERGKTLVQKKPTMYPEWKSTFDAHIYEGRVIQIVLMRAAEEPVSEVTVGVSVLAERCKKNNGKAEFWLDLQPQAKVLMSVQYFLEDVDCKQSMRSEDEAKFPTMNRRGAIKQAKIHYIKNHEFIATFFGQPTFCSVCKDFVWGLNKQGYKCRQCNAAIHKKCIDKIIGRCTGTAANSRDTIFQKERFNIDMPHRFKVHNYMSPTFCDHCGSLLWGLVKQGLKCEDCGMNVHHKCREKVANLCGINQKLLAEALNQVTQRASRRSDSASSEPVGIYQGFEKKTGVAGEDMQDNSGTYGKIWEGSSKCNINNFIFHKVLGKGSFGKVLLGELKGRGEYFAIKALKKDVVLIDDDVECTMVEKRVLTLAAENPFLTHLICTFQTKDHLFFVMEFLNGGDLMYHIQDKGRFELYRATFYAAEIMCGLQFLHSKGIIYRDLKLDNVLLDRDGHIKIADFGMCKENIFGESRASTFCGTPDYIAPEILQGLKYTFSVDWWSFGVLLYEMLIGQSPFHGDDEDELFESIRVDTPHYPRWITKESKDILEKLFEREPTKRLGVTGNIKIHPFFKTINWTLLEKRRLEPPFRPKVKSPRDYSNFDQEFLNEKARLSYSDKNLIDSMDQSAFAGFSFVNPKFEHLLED

| SMILES | IC50 (His-PKC-theta) [nM] | Sel. Level (ratio of IC50 PKC-delta/IC50 PKC-theta) (PKC delta) |
| --- | --- | --- |
| CC1(C)[C@@H](O)C[C@H]1Nc1nc(NCCC2CNc3cc(Cl)ccc32)ncc1C#N (stereo partly shown) [Cmpd 263] | 100 to 800 | G (selectivity between 5- and 20-fold (selectivity level G)) |
| CC1(C)[C@@H](O)C[C@H]1Nc1nc(NCCc2cc3cc(C#N)ccc3[nH]2)ncc1C#N [Cmpd 264] | 100 to 800 | G (selectivity between 5- and 20-fold (selectivity level G)) |
| CNS(=O)(=O)Cc1ccc2[nH]cc(CCNc3ncc(C#N)c(N[C@@H]4C[C@H](O)C4(C)C)n3)c2c1 [Cmpd 266] | 2000 to 10000 | H (selectivity level of 5-fold or less (selectivity level H)) |
| CCOc1cccc(CCNc2ncc(C#N)c(N[C@@H]3C[C@H](O)C3(C)C)n2)n1 [Cmpd 267] | 800 to 2000 | G (selectivity between 5- and 20-fold (selectivity level G)) |
| Cc1cnccc1CCNc1ncc(C#N)c(N[C@@H]2C[C@H](O)C2(C)C)n1 [Cmpd 268] | 800 to 2000 | G (selectivity between 5- and 20-fold (selectivity level G)) |
| CC1(C)[C@@H](O)C[C@H]1Nc1nc(NCCc2ccnc(C(F)(F)F)c2)ncc1C#N [Cmpd 273] | 800 to 2000 | G (selectivity between 5- and 20-fold (selectivity level G)) |
| CC1(C)[C@@H](O)C[C@H]1Nc1nc(NCCc2cncc(C(F)(F)F)c2)ncc1C#N [Cmpd 274] | 800 to 2000 | G (selectivity between 5- and 20-fold (selectivity level G)) |
| CC(F)(F)COc1ncncc1CNc1ncc(C#N)c(N[C@H]2CCC[C@](C)(O)C2)n1 [Cmpd 285] | 2000 to 10000 | H (selectivity level of 5-fold or less (selectivity level H)) |
| CC(F)(F)COc1ncncc1CNc1ncc(C#N)c(N[C@@H]2CCC[C@@](C)(O)C2)n1 [Cmpd 286] | 100 to 800 | F (selectivity of between 20- and 100-fold (selectivity level F)) |
| CC(F)(F)COc1ncncc1CNc1ncc(C#N)c(N[C@H]2CCC[C@@](C)(O)C2)n1 [Cmpd 287] | 100 to 800 | F (selectivity of between 20- and 100-fold (selectivity level F)) |
| CN(C)C(=O)[C@H]1C[C@@H](Nc2nc(NCCc3c[nH]c4ccccc34)ncc2C#N)C1 [Cmpd 288] | 100 to 800 | G (selectivity between 5- and 20-fold (selectivity level G)) |
| CNC(=O)[C@H]1C[C@@H](Nc2nc(NCCc3c[nH]c4ccccc34)ncc2C#N)C1 [Cmpd 289] | 800 to 2000 | G (selectivity between 5- and 20-fold (selectivity level G)) |
| N#Cc1cnc(NCCc2c[nH]c3ccccc23)nc1N[C@H]1C[C@@H](C(N)=O)C1 [Cmpd 290] | 100 to 800 | F (selectivity of between 20- and 100-fold (selectivity level F)) |
| Cn1c(=O)n(CCNc2ncc(C#N)c(N[C@@H]3CC[C@H](O)C(C)(C)C3)n2)c2ccccc21 [Cmpd 291] | 2000 to 10000 | H (selectivity level of 5-fold or less (selectivity level H)) |
| CC(F)(F)COc1ncncc1CNc1ncc(C#N)c(N[C@H]2CC3(C2)C[C@](C)(O)C3)n1 (stereo partly shown) [Cmpd 294] | 100 to 800 | F (selectivity of between 20- and 100-fold (selectivity level F)) |
| CC(F)(F)COc1ncncc1CNc1ncc(C#N)c(N[C@H]2CC3(C2)C[C@](C)(O)C3)n1 (stereo partly shown) [Cmpd 295] | 100 to 800 | F (selectivity of between 20- and 100-fold (selectivity level F)) |
| CC(F)(F)COc1ncncc1CNc1ncc(C#N)c(N[C@H]2CCC[C@H](O)C2(C)C)n1 [Cmpd 296] | 100 to 800 | F (selectivity of between 20- and 100-fold (selectivity level F)) |
| CC(F)(F)COc1ncncc1CNc1ncc(C#N)c(N[C@@H]2CCC[C@@H](O)C2(C)C)n1 [Cmpd 297] | 100 to 800 | F (selectivity of between 20- and 100-fold (selectivity level F)) |
| CC(F)(F)COc1ncncc1CNc1ncc(C#N)c(N[C@H]2CCC[C@@H](O)C2(C)C)n1 [Cmpd 298] | < 100 | E (selectivity (Sel. Level=ratio of IC50 PKC-delta/IC50 PKC-theta) of >100-fold (selectivity level E)) |
| CC(F)(F)COc1ncncc1CNc1ncc(C#N)c(N[C@@H]2CCC[C@H](O)C2(C)C)n1 [Cmpd 299] | < 100 | E (selectivity (Sel. Level=ratio of IC50 PKC-delta/IC50 PKC-theta) of >100-fold (selectivity level E)) |
| CN1C(=O)C(CCNc2ncc(C#N)c(N[C@@H]3CC[C@H](O)C(C)(C)C3)n2)c2ccccc21 (stereo partly shown) [Cmpd 300] | 800 to 2000 | G (selectivity between 5- and 20-fold (selectivity level G)) |
| C[C@]1(O)CC2(C[C@H](Nc3nc(NCCC4C(=O)Nc5ccccc54)ncc3C#N)C2)C1 (stereo partly shown) [Cmpd 301] | 100 to 800 | F (selectivity of between 20- and 100-fold (selectivity level F)) |
| C[C@]1(O)CC2(C[C@H](Nc3nc(NCCC4C(=O)Nc5ccccc54)ncc3C#N)C2)C1 (stereo partly shown) [Cmpd 302] | 800 to 2000 | G (selectivity between 5- and 20-fold (selectivity level G)) |
| CC1(C)[C@@H](Nc2nc(NCCC3C(=O)Nc4ccccc43)ncc2C#N)CCC[C@@H]1O (stereo partly shown) [Cmpd 305] | 100 to 800 | G (selectivity between 5- and 20-fold (selectivity level G)) |
| CC1(C)[C@H](O)CCC[C@H]1Nc1nc(NCCC2C(=O)Nc3ccccc32)ncc1C#N (stereo partly shown) [Cmpd 306] | 100 to 800 | H (selectivity level of 5-fold or less (selectivity level H)) |

More lines, main results first:

| IC50 (His-PKC-theta) [nM] | SMILES | Sel. Level (ratio of IC50 PKC-delta/IC50 PKC-theta) (PKC delta) |
| --- | --- | --- |
| 100 to 800 | CC1(C)[C@@H](O)C[C@H]1Nc1nc(NCCc2c[nH]c3cc(F)ccc23)ncc1C#N [Cmpd 265] | G (selectivity between 5- and 20-fold (selectivity level G)) |
| 800 to 2000 | CC1(C)C[C@H](Nc2nc(NCCc3cncc(C(F)(F)F)c3)ncc2C#N)CC[C@@H]1O [Cmpd 271] | G (selectivity between 5- and 20-fold (selectivity level G)) |
| 100 to 800 | CC1(C)C[C@H](Nc2nc(NCCc3ccnc(C(F)(F)F)c3)ncc2C#N)CC[C@@H]1O [Cmpd 272] | G (selectivity between 5- and 20-fold (selectivity level G)) |
| 800 to 2000 | CC1(C)C[C@H](Nc2nc(NCCc3cc(Cl)c[n+]([O-])c3)ncc2C#N)CC[C@@H]1O [Cmpd 275] | G (selectivity between 5- and 20-fold (selectivity level G)) |
| 100 to 800 | CC1(C)C[C@H](Nc2nc(NCCc3cncc(Cl)c3)ncc2C#N)CC[C@@H]1O [Cmpd 276] | F (selectivity of between 20- and 100-fold (selectivity level F)) |
| 2000 to 10000 | CC1(C)C[C@H](Nc2nc(NCCc3cncnc3)ncc2C#N)CC[C@@H]1O [Cmpd 277] | H (selectivity level of 5-fold or less (selectivity level H)) |
| 2000 to 10000 | CC1(C)C[C@H](Nc2nc(NCCc3ccncn3)ncc2C#N)CC[C@@H]1O [Cmpd 278] | H (selectivity level of 5-fold or less (selectivity level H)) |
| 2000 to 10000 | CC1(C)C[C@H](Nc2nc(NCCc3cnccn3)ncc2C#N)CC[C@@H]1O [Cmpd 279] | H (selectivity level of 5-fold or less (selectivity level H)) |
| 100 to 800 | CC1(C)C[C@H](Nc2nc(NCCc3ccncc3)ncc2C#N)CC[C@@H]1O [Cmpd 280] | G (selectivity between 5- and 20-fold (selectivity level G)) |
| 800 to 2000 | CC1(C)C[C@H](Nc2nc(NCCc3cccnc3)ncc2C#N)CC[C@@H]1O [Cmpd 281] | G (selectivity between 5- and 20-fold (selectivity level G)) |
| 2000 to 10000 | CC1(C)C[C@H](Nc2nc(NCCc3ccccn3)ncc2C#N)CC[C@@H]1O [Cmpd 282] | H (selectivity level of 5-fold or less (selectivity level H)) |
| 100 to 800 | CC1(C)C[C@H](Nc2nc(NCCc3c[nH]c4cnccc34)ncc2C#N)CC[C@@H]1O [Cmpd 283] | F (selectivity of between 20- and 100-fold (selectivity level F)) |
| 2000 to 10000 | CC1(C)C[C@H](Nc2nc(NCCc3c[nH]c4ccncc34)ncc2C#N)CC[C@@H]1O [Cmpd 284] | H (selectivity level of 5-fold or less (selectivity level H)) |
| < 100 | Cn1cc(CCNc2ncc(C#N)c(N[C@@H]3CC[C@H](O)C(C)(C)C3)n2)c2ccccc21 [Cmpd 292] | F (selectivity of between 20- and 100-fold (selectivity level F)) |
| 2000 to 10000 | CC1(C)C[C@H](Nc2nc(NCC[C@]3(C)C(=O)Nc4ccccc43)ncc2C#N)CC[C@@H]1O [Cmpd 303] | H (selectivity level of 5-fold or less (selectivity level H)) |
| 100 to 800 | CC1(C)C[C@H](Nc2nc(NCC[C@@]3(C)C(=O)Nc4ccccc43)ncc2C#N)CC[C@@H]1O [Cmpd 304] | F (selectivity of between 20- and 100-fold (selectivity level F)) |

Source: patent publication US9783505B2, “Substituted diaminopyrimidyl compounds, compositions thereof, and methods of treatment therewith” (Signal Pharmaceuticals, LLC, priority 2013, dated 2017)
